Source: US10149876B2, “Tripterygium wilfordii extracts to overcome chemotherapy resistance” (WESTERN UNIVERSITY OF HEALTH SCIENCES, priority 2012, dated 2018)
“And” between values parts separate entries of the source, which are not always exact repeats. Identical values can stand only once. Like-named read-outs stand apart in the source and are kept apart here.

System: PC3-TxR cells
Assay: SRB cell viability assay, docetaxel-resistant PC3-TxR cells
Details: Homo sapiens
Protocol: The CE is expressed as: CE=IC50D/IC50E+D. IC50D is the IC50 of the chemotherapeutic drug against which an test extract (or other compound suspected of having a CE) is evaluated. IC50E+D is the IC50 of the combination of the test extract and chemotherapeutic drug. The CE of a test extract or compound can vary depending on the type of cell and the specific chemotherapeutic or class or combination of therapeutics that are being evaluated.
The variance between those concentrations can be quantitated by calculating the Chemosensitizing Utility Index (CUI) value for a test extract or compound. The CUI is expressed as: CUI=CE×(IC50E/ConE). […] ConE is the concentration of an extract or compound that is required to produce desirable CE.
CE and CUI values were obtained individually for the aqueous, ethanol, and chloroform extracts that are described above. […] In the Examples, the ethanol, is referred to as Lei Gong Teng extract (LGT-E).
PC3-TxR cells were plated into sterile, F-bottom Cellstar® 96 well cell culture plates with lids (Cat #655180, Purchased from Greiner Bio-one, Monroe, N.C.) by placing into each well, 100 μl of medium containing 3000 cells in RPMI 1640 supplemented with 10% fetal bovine serum (Thermo Scientific, Logan, Utah) and a solution of penicillin (100 U/ml) and streptomycin (100 μg/ml) (Life Technologies Grand Island, N.Y.). The cells were at passage 52 at the time of plating. Triplicate wells were assigned to each experimental condition tested, and a 24 hour recovery period for the cells following the seeding of the wells was allowed. During the recovery period, the cells were incubated at 37° C. and 5% CO2.
The LGT-E was prepared by adding an appropriate amount of LGT-E powder to DMSO to form a 500 mg/ml stock solution. The stock solution was alternately vortexed and sonicated until the LGT-E powder went into solution. The stock solution was diluted in RPMI 1640 medium (Mediatech, Manassas, Va., or Life Technologies Grand Island, NY) to reach the desired concentrations of LGT-E (e.g., 12, 25, or 60 μg/ml).
Pretreatment of the cells with LGT-E was carried out by aspirating the media from the wells, followed by adding 50 μl of LGT-E solution containing concentrations of either 12 or 25 μg/ml of LGT-E solution and incubation of the cells for two hours under conditions of 37° C. and 5% CO2.
Media was aspirated from each well, and replaced with a 10% solution of cold trichloroacetic acid (TCA) (Cat #: T6399, purchased from Sigma-Aldrich), and incubated for one hour at 4° C. After the TCA incubation, the TCA solution was aspirated, and the cells were washed five times with tap water. After removing the last wash, the plates were left with lids off at room temperature until the surfaces were dry, which took one to two hours. Then 50 μl of a 0.4% solution of sul-forhodamine B (SRB) sodium salt (Cat #: S9012, purchased from Sigma-Aldrich) was added to each well and the plates were incubated at room temperature for 20 to 30 minutes. Afterwards, the wells were washed five times with a 1% acetic acid solution in 10 mM TRIS base (Cat#: 161-0719, purchased from Bio-Rad Laboratories, Hercules, Calif.). The plates were subsequently left to dry for several hours or overnight. SRB that remained in the dried wells was solubilized by adding 100 μl of SRB solubilization solution (10 mM TRIS base) to each well, and placing the plates either on a gently-moving shaker or letting the plates remain stationary at room temperature until the SRB dissolves, which takes about five to ten minutes. The amount of SRB in each well, which correlated directly to the number of living cells at fixation, was determined spectrophotometrically at an absorbance of 565 nm by a microplate reader.

Structure (SMILES): CC(=O)O[C@@]12CO[C@@H]1C[C@H](O)[C@@]1(C)C(=O)[C@H](O)C3=C(C)[C@@H](OC(=O)[C@H](O)[C@@H](NC(=O)OC(C)(C)C)c4ccccc4)C[C@@](O)([C@@H](OC(=O)c4ccccc4)[C@H]21)C3(C)C [Docetaxel, docetaxel]
- viability at 1 pM (read-out: % viable, PC3-TxR, LGT-E 12 μg/ml pre-treatment, docetaxel 0.001 nM 72 h): 100%
- viability at 0.0001 µM (read-out: % viable, PC3-TxR, LGT-E 12 μg/ml pre-treatment, docetaxel 0.1 nM 72 h): 105%
- viability at 0.000333 µM (read-out: % viable, PC3-TxR, LGT-E 12 μg/ml pre-treatment, docetaxel 0.333 nM 72 h): 103%
- viability at 0.001 µM (read-out: % viable, PC3-TxR, LGT-E 12 μg/ml pre-treatment, docetaxel 1 nM 72 h): 97.8%
- viability at 0.00333 µM (read-out: % viable, PC3-TxR, LGT-E 12 μg/ml pre-treatment, docetaxel 3.33 nM 72 h): 62.4%
- viability at 0.01 µM (read-out: % viable, PC3-TxR, LGT-E 12 μg/ml pre-treatment, docetaxel 10 nM 72 h): 21.2%
- viability at 0.0333 µM (read-out: % viable, PC3-TxR, LGT-E 12 μg/ml pre-treatment, docetaxel 33.3 nM 72 h): 7%
- viability at 0.1 µM (read-out: % viable, PC3-TxR, LGT-E 12 μg/ml pre-treatment, docetaxel 100 nM 72 h): 4.1%
- viability at 1 pM (read-out: % viable, PC3-TxR, LGT-E 25 μg/ml pre-treatment, docetaxel 0.001 nM 72 h): 100%
- viability at 0.0001 µM (read-out: % viable, PC3-TxR, LGT-E 25 μg/ml pre-treatment, docetaxel 0.1 nM 72 h): 99.9%
- viability at 0.000333 µM (read-out: % viable, PC3-TxR, LGT-E 25 μg/ml pre-treatment, docetaxel 0.333 nM 72 h): 99.1%
- viability at 0.001 µM (read-out: % viable, PC3-TxR, LGT-E 25 μg/ml pre-treatment, docetaxel 1 nM 72 h): 82.5%
- viability at 0.00333 µM (read-out: % viable, PC3-TxR, LGT-E 25 μg/ml pre-treatment, docetaxel 3.33 nM 72 h): 34.6%
- viability at 0.01 µM (read-out: % viable, PC3-TxR, LGT-E 25 μg/ml pre-treatment, docetaxel 10 nM 72 h): 9.4%
- viability at 0.0333 µM (read-out: % viable, PC3-TxR, LGT-E 25 μg/ml pre-treatment, docetaxel 33.3 nM 72 h): 4.9%
- viability at 0.1 µM (read-out: % viable, PC3-TxR, LGT-E 25 μg/ml pre-treatment, docetaxel 100 nM 72 h): 4.7%
- viability at 1 pM (read-out: % viable, PC3-TxR, no LGT-E pre-treatment (Table 2), docetaxel 0.001 nM 72 h): 100%
- viability at 0.0001 µM (read-out: % viable, PC3-TxR, no LGT-E pre-treatment (Table 2), docetaxel 0.1 nM 72 h): 98.5%
- viability at 0.000333 µM (read-out: % viable, PC3-TxR, no LGT-E pre-treatment (Table 2), docetaxel 0.333 nM 72 h): 100%
- viability at 0.001 µM (read-out: % viable, PC3-TxR, no LGT-E pre-treatment (Table 2), docetaxel 1 nM 72 h): 105%
- viability at 0.01 µM (read-out: % viable, PC3-TxR, no LGT-E pre-treatment (Table 2), docetaxel 10 nM 72 h): 77%
- viability at 0.0333 µM (read-out: % viable, PC3-TxR, no LGT-E pre-treatment (Table 2), docetaxel 33.3 nM 72 h): 29.7%
- viability at 0.1 µM (read-out: % viable, PC3-TxR, no LGT-E pre-treatment (Table 2), docetaxel 100 nM 72 h): 11.3%
- viability at 1 pM (read-out: % viable, PC3-TxR, no LGT-E pre-treatment (Table 4), docetaxel 0.001 nM 72 h): 100%
- viability at 0.0001 µM (read-out: % viable, PC3-TxR, no LGT-E pre-treatment (Table 4), docetaxel 0.1 nM 72 h): 98.7%
- viability at 0.000333 µM (read-out: % viable, PC3-TxR, no LGT-E pre-treatment (Table 4), docetaxel 0.333 nM 72 h): 99.9%
- viability at 0.001 µM (read-out: % viable, PC3-TxR, no LGT-E pre-treatment (Table 4), docetaxel 1 nM 72 h): 99.2%
- viability at 0.00333 µM (read-out: % viable, PC3-TxR, no LGT-E pre-treatment (Table 4), docetaxel 3.33 nM 72 h): 98.5%
- viability at 0.01 µM (read-out: % viable, PC3-TxR, no LGT-E pre-treatment (Table 4), docetaxel 10 nM 72 h): 76.7%
- viability at 0.0333 µM (read-out: % viable, PC3-TxR, no LGT-E pre-treatment (Table 4), docetaxel 33.3 nM 72 h): 32.9%
- viability at 0.1 µM (read-out: % viable, PC3-TxR, no LGT-E pre-treatment (Table 4), docetaxel 100 nM 72 h): 13.4%
- viability at 1 pM (read-out: % viable, PC3-TxR, no LGT-E pre-treatment (Table 11, Example 4), docetaxel 0.001 nM 72 h): 100%
- viability at 0.0001 µM (read-out: % viable, PC3-TxR, no LGT-E pre-treatment (Table 11, Example 4), docetaxel 0.1 nM 72 h): 98.7%
- viability at 0.000333 µM (read-out: % viable, PC3-TxR, no LGT-E pre-treatment (Table 11, Example 4), docetaxel 0.333 nM 72 h): 99.9%
- viability at 0.001 µM (read-out: % viable, PC3-TxR, no LGT-E pre-treatment (Table 11, Example 4), docetaxel 1 nM 72 h): 99.2%
- viability at 0.00333 µM (read-out: % viable, PC3-TxR, no LGT-E pre-treatment (Table 11, Example 4), docetaxel 3.33 nM 72 h): 98.5%
- viability at 0.01 µM (read-out: % viable, PC3-TxR, no LGT-E pre-treatment (Table 11, Example 4), docetaxel 10 nM 72 h): 76.7%
- viability at 0.0333 µM (read-out: % viable, PC3-TxR, no LGT-E pre-treatment (Table 11, Example 4), docetaxel 33.3 nM 72 h): 32.9%
- viability at 0.1 µM (read-out: % viable, PC3-TxR, no LGT-E pre-treatment (Table 11, Example 4), docetaxel 100 nM 72 h): 13.4%
- IC50 (read-out: IC50 of drug when cells pre-treated with Chemosensitizing Agent before drug treatment, docetaxel, LGT-E 25 μg/ml pre-treatment): 2.19 nM and 0.00177 µg/mL
- IC50 (read-out: IC50 of drug when cells treated with drug only, docetaxel, line of LGT-E 25 μg/ml): 18.3 nM and 0.0148 µg/mL
